In assay [1] the target is Galectin-1 (Homo sapiens) (UniProt P09382). In words: Inhibition of carbohydrate-dependent human galectin1 binding at 10 mM by solid phase assay.
The test system of assay [2] is CAPAN-1. In words: Inhibition of carbohydrate-dependent galectin1 binding to human Capan1 cell surface at 2mM. It is filed as functional. The arrangement: scale not given: the % may be the effect or the level left.
Assay [3] concerns the target Galectin-3 (Homo sapiens) (UniProt P17931). In words: Inhibition of carbohydrate-dependent human galectin3 binding at 10 mM by solid phase assay.
Assay [4] deals with SW480. The assay can be described thus: Inhibition of carbohydrate-dependent galectin3 binding to human SW480 cell surface at 1mM. It is filed as functional. The arrangement: scale not given: the % may be the effect or the level left.
The subject of assay [5] is SW480. The assay can be described thus: Inhibition of carbohydrate-dependent galectin3 binding to human SW480 cell surface at 2mM. It is filed as functional, cell-based. The arrangement: scale not given: the % may be the effect or the level left.
The subject of assay [6] is SW480. In words: Inhibition of carbohydrate-dependent galectin3 binding to human SW480 cell surface at 0.5mM. It is filed as functional, cell-based. The arrangement: scale not given: the % may be the effect or the level left.
In assay [7] the test system is SW480. The assay can be described thus: Inhibition of carbohydrate-dependent galectin3 binding to human SW480 cell surface at 5 mM. Format: functional, cell-based. The arrangement: scale not given: the % may be the effect or the level left.

The source made the active and inactive calls. The rule behind the calls is not given here. Non-standard residues stand in square brackets, D forms with d. Residues, ends and D or L forms follow the SMILES beside them. *: point of attachment. X1 = OC[C@H]1O[C@@H](O[C@H]2[C@H](O)[C@@H](O)[C@@H](*)O[C@@H]2CO)[C@H](O)[C@@H](O)[C@H]1O; βGal = OC[C@H]1O[C@@H](*)[C@H](O)[C@@H](O)[C@H]1O; X2 = OC[C@H]1O[C@@H](N*)[C@H](O)[C@@H](O)[C@H]1O; Cha = N[C@@H](CC1CCCCC1)C(=O)O

Galectin-1 (Homo sapiens), sequence (P09382 whole entry): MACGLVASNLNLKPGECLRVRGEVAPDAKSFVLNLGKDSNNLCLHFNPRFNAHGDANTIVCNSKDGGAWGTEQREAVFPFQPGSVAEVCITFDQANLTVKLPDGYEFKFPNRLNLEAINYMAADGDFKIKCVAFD
Galectin-3 (Homo sapiens), sequence (P17931 whole entry): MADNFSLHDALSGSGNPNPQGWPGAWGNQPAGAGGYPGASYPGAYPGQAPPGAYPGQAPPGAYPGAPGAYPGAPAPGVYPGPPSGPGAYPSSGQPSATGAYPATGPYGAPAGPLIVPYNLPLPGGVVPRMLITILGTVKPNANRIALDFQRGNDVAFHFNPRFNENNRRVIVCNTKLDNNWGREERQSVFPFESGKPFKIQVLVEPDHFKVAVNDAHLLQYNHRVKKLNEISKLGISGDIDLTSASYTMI

Compound `CSCC[C@H](NC(=O)[C@@H](N)[C@@H](C)O[C@H]1O[C@H](CO)[C@@H](O[C@@H]2O[C@H](CO)[C@H](O)[C@H](O)[C@H]2O)[C@H](O)[C@H]1O)C(=O)N[C@@H](CCCNC(=N)N)C(=O)N[C@@H](C)C(=O)N[C@H](C(=O)N[C@@H](CC1CCCCC1)C(=O)O)[C@@H](C)O[C@H]1O[C@H](CO)[C@@H](O[C@@H]2O[C@H](CO)[C@H](O)[C@H](O)[C@H]2O)[C@H](O)[C@H]1O` came in with an inhibition in assay [1] of 38%. The compound further registered an Activity in assay [2] of 22%.

In assay [1], `CC[C@H](C)[C@H](NC(=O)[C@H](Cc1ccccc1)NC(=O)[C@@H]1CCCN1)C(=O)N[C@@H](CC1CCCCC1)C(=O)N[C@@H](Cc1ccccc1)C(=O)N[C@@H](CCC(N)=O)C(=O)O` yielded an inhibition of 14%. Consider `CSCC[C@H](N)C(=O)N[C@@H](CCCNC(=N)N)C(=O)N[C@H](C(=O)N[C@@H](CCCNC(=N)N)C(=O)N[C@H](C(=O)N[C@@H](CCCNC(=N)N)C(=O)O)[C@@H](C)O[C@H]1O[C@H](CO)[C@@H](O[C@@H]2O[C@H](CO)[C@H](O)[C@H](O)[C@H]2O)[C@H](O)[C@H]1O)[C@@H](C)O[C@H]1O[C@H](CO)[C@@H](O[C@@H]2O[C@H](CO)[C@H](O)[C@H](O)[C@H]2O)[C@H](O)[C@H]1O`, for which, in assay [3], the inhibition entry is “inactive”. With `C[C@@H](O)[C@H](NC(=O)[C@H](Cc1ccc(O)cc1)NC(=O)[C@H](CC1CCCCC1)NC(=O)[C@H](Cc1cnc[nH]1)NC(=O)[C@H](CC1CCCCC1)NC(=O)[C@@H](N)Cc1ccc(O)cc1)C(=O)O`, the inhibition in assay [1] turned out to be 9%.

Regarding `C[C@H](NC(=O)[C@@H](N)[C@@H](C)O[C@H]1O[C@H](CO)[C@@H](O[C@@H]2O[C@H](CO)[C@H](O)[C@H](O)[C@H]2O)[C@H](O)[C@H]1O)C(=O)N[C@@H](CC(N)=O)C(=O)N[C@@H](Cc1ccc(O)cc1)C(=O)N[C@H](C(=O)N[C@@H](CCCNC(=N)N)C(=O)O)[C@@H](C)O[C@H]1O[C@H](CO)[C@@H](O[C@@H]2O[C@H](CO)[C@H](O)[C@H](O)[C@H]2O)[C@H](O)[C@H]1O`, the inhibition in assay [3] came out at 15%.

Compound `OC[C@H]1O[C@@H](O)[C@H](O)[C@@H](O)[C@H]1O` returned an inhibition in assay [1] of 17%. In assay [3], the inhibition result is “inactive”. As to `CC[C@H](C)[C@H](NC(=O)[C@@H](NC(=O)[C@H](CCCNC(=N)N)NC(=O)[C@H](CCCNC(=N)N)NC(=O)[C@H](Cc1ccc(O)cc1)NC(=O)[C@H](C)N)[C@@H](C)O[C@H]1O[C@H](CO)[C@@H](O[C@@H]2O[C@H](CO)[C@H](O)[C@H](O)[C@H]2O)[C@H](O)[C@H]1O)C(=O)O` (H-AYRRT(X1)I-OH), the inhibition entry in assay [1] is “inactive”. `CC[C@H](C)[C@H](NC(=O)[C@@H](NC(=O)[C@H](CCCNC(=N)N)NC(=O)[C@@H]1CCCN1C(=O)[C@H](CCCNC(=N)N)NC(=O)[C@@H](N)Cc1ccccc1)[C@@H](C)O[C@H]1O[C@H](CO)[C@@H](O[C@@H]2O[C@H](CO)[C@H](O)[C@H](O)[C@H]2O)[C@H](O)[C@H]1O)C(=O)O` (H-FRPRT(X1)I-OH) returned an inhibition in assay [1] of 3%. The compound also yielded an Activity in assay [2] of 12%.

Take `CC[C@H](C)[C@H](NC(=O)[C@H](Cc1ccccc1)NC(=O)[C@@H](NC(=O)CN)C(C)C)C(=O)N[C@@H](CC1CCCCC1)C(=O)N[C@@H](C)C(=O)O` (H-GVFI[Cha]A-OH): the inhibition result in assay [1] was “inactive”. For `CC(C)[C@H](NC(=O)[C@H](Cc1cnc[nH]1)NC(=O)[C@@H](N)Cc1cnc[nH]1)C(=O)N[C@@H](Cc1ccc(O)cc1)C(=O)N[C@@H](Cc1ccc(O)cc1)C(=O)N[C@@H](Cc1cnc[nH]1)C(=O)O` (H-HHVYYH-OH), in assay [3], the inhibition entry is “inactive”. The compound `CC[C@H](C)[C@H](N)C(=O)N[C@@H](Cc1ccccc1)C(=O)N[C@@H](CCCNC(=N)N)C(=O)N[C@@H](CC1CCCCC1)C(=O)N[C@@H](CCCNC(=N)N)C(=O)N[C@@H](Cc1ccc(O)cc1)C(=O)O` (H-IFR[Cha]RY-OH) displayed an inhibition in assay [1] of 70%.

Take `CSCC[C@H](N)C(=O)N[C@@H](Cc1ccccc1)C(=O)N[C@H](C(=O)N[C@@H](CC1CCCCC1)C(=O)N[C@@H](CC1CCCCC1)C(=O)N[C@@H](CCCNC(=N)N)C(=O)O)C(C)C` (H-MFV[Cha][Cha]R-OH): in assay [1], the inhibition amounted to 22%. As for `CC[C@H](C)[C@H](NC(=O)[C@H](CCCNC(=N)N)NC(=O)[C@@H](NC(=O)[C@H](Cc1ccccc1)NC(=O)[C@@H](NC(=O)[C@@H](N)CC(N)=O)[C@@H](C)O[C@H]1O[C@H](CO)[C@@H](O[C@@H]2O[C@H](CO)[C@H](O)[C@H](O)[C@H]2O)[C@H](O)[C@H]1O)C(C)C)C(=O)O` (H-NT(X1)FVRI-OH), in assay [3], the inhibition came out at 44%. The same compound showed an Activity in assay [4] of 40%.

`O=C(O)[C@H](Cc1ccccc1)NC(=O)[C@H](Cc1ccccc1)NC(=O)[C@H](Cc1ccccc1)NC(=O)[C@H](Cc1ccccc1)NC(=O)[C@H](Cc1ccccc1)NC(=O)[C@@H]1CCCN1` (H-PFFFFF-OH) displayed an inhibition in assay [3] of 76%. In assay [1], `CC[C@H](C)[C@H](NC(=O)[C@H](Cc1ccccc1)NC(=O)[C@H](Cc1ccccc1)NC(=O)[C@@H]1CCCN1)C(=O)N[C@@H](CO)C(=O)N[C@@H](CCCNC(=N)N)C(=O)O` (H-PFFISR-OH) yielded an inhibition of 9%. For the same compound, the Activity in assay [4] came out at 63%. As to `CC[C@H](C)[C@H](NC(=O)[C@@H]1CCCN1)C(=O)N[C@@H](Cc1ccccc1)C(=O)N[C@H](C(=O)N[C@@H](CCCNC(=N)N)C(=O)N[C@@H](CCCNC(=N)N)C(=O)O)[C@@H](C)O[C@H]1O[C@H](CO)[C@@H](O[C@@H]2O[C@H](CO)[C@H](O)[C@H](O)[C@H]2O)[C@H](O)[C@H]1O` (H-PIFT(X1)RR-OH), the inhibition result in assay [1] is “inactive”. Consider `CC(C)[C@H](NC(=O)[C@@H](NC(=O)[C@@H]1CCCN1)[C@@H](C)O[C@H]1O[C@H](CO)[C@@H](O[C@@H]2O[C@H](CO)[C@H](O)[C@H](O)[C@H]2O)[C@H](O)[C@H]1O)C(=O)N[C@@H](C)C(=O)N1CCC[C@H]1C(=O)N[C@@H](CCCNC(=N)N)C(=O)O` (H-PT(X1)VAPR-OH), for which the inhibition entry in assay [3] was “inactive”.

As for `CC[C@H](C)[C@H](NC(=O)[C@@H](NC(=O)[C@@H]1CCCN1)[C@@H](C)O)C(=O)N[C@@H](Cc1ccccc1)C(=O)N[C@@H](Cc1ccccc1)C(=O)N[C@@H](Cc1ccccc1)C(=O)O` (H-PTIFFF-OH), in assay [1], the inhibition result is “inactive”. Same read-out and setting: to `CC(C)[C@H](NC(=O)[C@H](CC1CCCCC1)NC(=O)[C@H](CC(N)=O)NC(=O)[C@H](CC1CCCCC1)NC(=O)[C@@H]1CCCN1)C(=O)N[C@@H](Cc1ccc(O)cc1)C(=O)O` (H-P[Cha]N[Cha]VY-OH) belongs 67%.

Regarding `CC(C)[C@H](NC(=O)[C@@H](N)CCCNC(=N)N)C(=O)N[C@@H](Cc1cnc[nH]1)C(=O)N[C@@H](Cc1ccc(O)cc1)C(=O)N[C@H](C(=O)N[C@@H](CCCNC(=N)N)C(=O)O)[C@@H](C)O[C@H]1O[C@H](CO)[C@@H](O[C@@H]2O[C@H](CO)[C@H](O)[C@H](O)[C@H]2O)[C@H](O)[C@H]1O` (H-RVHYT(X1)R-OH), the inhibition result in assay [3] was “inactive”. The compound also returned an Activity in assay [4] of 35%. Compound `C[C@H](NC(=O)[C@@H](N)CO)C(=O)N[C@@H](CO)C(=O)N[C@@H](CO)C(=O)N[C@H](C(=O)N[C@@H](CCCNC(=N)N)C(=O)O)[C@@H](C)O[C@H]1O[C@H](CO)[C@@H](O[C@@H]2O[C@H](CO)[C@H](O)[C@H](O)[C@H]2O)[C@H](O)[C@H]1O` (H-SASST(X1)R-OH) registered an inhibition in assay [1] of 22%. For the compound `CC[C@H](C)[C@H](NC(=O)[C@H](Cc1ccccc1)NC(=O)[C@H](CCCNC(=N)N)NC(=O)[C@H](CCCNC(=N)N)NC(=O)[C@H](CC1CCCCC1)NC(=O)[C@@H](N)[C@@H](C)O[C@H]1O[C@H](CO)[C@@H](O[C@@H]2O[C@H](CO)[C@H](O)[C@H](O)[C@H]2O)[C@H](O)[C@H]1O)C(=O)O` (H-T(X1)[Cha]RRFI-OH), the inhibition entry in assay [1] is “inactive”. For the same compound, the Activity in assay [4] stood at 34%. In the same order, the values of `CC[C@H](C)[C@H](NC(=O)[C@@H](N)[C@@H](C)O[C@@H]1O[C@H](CO)[C@H](O)[C@H](O)[C@H]1O)C(=O)N[C@H](C(=O)N[C@@H](CCC(N)=O)C(=O)N[C@@H](CC1CCCCC1)C(=O)N[C@@H](Cc1ccc(O)cc1)C(=O)O)[C@@H](C)CC` (H-T(βGal)IIQ[Cha]Y-OH) are “inactive” and 77%. As to `CC[C@H](C)[C@H](NC(=O)[C@@H](NC(=O)[C@@H](N)CC1CCCCC1)C(C)C)C(=O)N[C@@H](CC(=O)N[C@@H]1O[C@H](CO)[C@H](O)[C@H](O)[C@H]1O)C(=O)N[C@@H](Cc1ccc(O)cc1)C(=O)N[C@@H](CCC(N)=O)C(=O)O` (H-[Cha]VID(X2)YQ-OH), the inhibition entry in assay [1] was “inactive”. For the compound `CSCC[C@H](NC(=O)[C@@H]1CCCN1C(=O)[C@H](CCCNC(=N)N)NC(=O)[C@H](CC1CCCCC1)NC(=O)[C@@H](N)CC1CCCCC1)C(=O)N[C@@H](CCCNC(=N)N)C(=O)O` (H-[Cha][Cha]RPMR-OH), in assay [3], the inhibition is 28%. Take LACTOSE, ANHYDROUS: the inhibition in assay [1] came to 54%; in assay [3], 44%. In addition, the Activity in assay [5] is 24%; in assay [6], 43%; in assay [7], 10%; in assay [4] it was 44%.

(Values after ChEMBL document CHEMBL1138414, “Discovery of galectin ligands in fully randomized combinatorial one-bead-one-compound (glyco)peptide libraries” (2007).)
